Reference: publication PMC10892984, “Novel Antineoplastic Inducers of Mitochondrial Apoptosis in Human Cancer Cells” (Molecules, 2024)

Tests used:
[1] = system: HOP-62
[2] = system: MDA-MB-468
[3] = system: SK-MEL-2
[4] = system: MDA-MB-231
[5] = system: PC-3
[6] = system: MOLT-4
[7] = system: SF-268
[8] = system: UACC-257
[9] = system: TK-10
[10] = system: RPMI-8226
[11] = system: SF-539
[12] = system: HCT-116
[13] = system: NCI-H522
[14] = system: MALME-3M; settings: 48 h
[15] = system: DU-145 cells; test: Cytochrome c assay (mitochondrial and cytosolic), ELISA; type: cell-based, human
Experimental: (§1) Cell numbers of 2 × 10^6 PC-3 and DU-145 cells were seeded into a […]. […] The protein content for each fraction was calculated to determine the mass content of cytochrome c in each fraction (pg cytochrome c/mg total protein). The mass content of cytochrome c (pg cytochrome c/mg total protein) was normalized towards the corresponding blank DMSO control and is given in percent (%) of blank DMSO control.

[16] = system: PC-3 cells; test: as above; type: cell-based, human; settings: 25 µM
Experimental: as §1

[17] = system: SW-620
[18] = system: SNB-75
[19] = system: OVCAR-4
[20] = system: NCI-H23
[21] = system: HS 578T; settings: 48 h
[22] = system: DU-145
[23] = system: NCI-H460
[24] = system: OVCAR-5
[25] = system: BT-549
[26] = system: SK-MEL-28

Question: Which results are given for `c1cc(CNC23CC4CC(CC(C4)C2)C3)cc(C[N+](Cc2cccc(CNC34CC5CC(CC(C5)C3)C4)c2)(Cc2cccc(CNC34CC5CC(CC(C5)C3)C4)c2)Cc2cccc(CNC34CC5CC(CC(C5)C3)C4)c2)c1` (centres unmarked) [Compound 1, tetrakis{3-[(tricyclo[3.3.1.1^3,7]decan-1-ammonio)methyl]benzyl}ammonium pentachloride]?
Answer: TGI ([1]; HOP-62, non-small-cell lung cancer, mutant p53, 48 h): 10.1 µM; GI50 ([1]; Homo sapiens, HOP-62, 48 h): 2.66 µM; CC50 ([1]; Homo sapiens, HOP-62, 48 h, read-out: LC50): 29.7 µM; GI50 ([2]; Homo sapiens, MDA-MB-468, 48 h): 0.797 µM; CC50 ([2]; Homo sapiens, MDA-MB-468, 48 h, read-out: LC50): 3.55 µM; TGI ([2]; MDA-MB-468, breast cancer, mutant p53, 48 h): 1.68 µM; GI50 ([3]; Homo sapiens, SK-MEL-2, 48 h): 1.06 µM; CC50 ([3]; Homo sapiens, SK-MEL-2, 48 h, read-out: LC50): 15.6 µM; TGI ([3]; SK-MEL-2, melanoma, mutant p53, 48 h): 3.20 µM; GI50 ([4]; Homo sapiens, MDA-MB-231, 48 h): 2.09 µM; CC50 ([4]; Homo sapiens, MDA-MB-231, 48 h, read-out: LC50): 22.7 µM; TGI ([4]; MDA-MB-231, breast cancer, mutant p53, 48 h): 7.41 µM; GI50 ([5]; Homo sapiens, PC-3, 48 h): 1.4 µM; CC50 ([5]; Homo sapiens, PC-3, 48 h, read-out: LC50): 21.4 µM; TGI ([5]; PC-3, prostate cancer, mutant p53 (null p53 protein), 48 h): 5.17 µM; GI50 ([6]; Homo sapiens, MOLT-4, 48 h): 1.32 µM; CC50 ([6]; Homo sapiens, MOLT-4, 48 h, read-out: LC50): > 50 µM; TGI ([6]; MOLT-4, leukemia, mutant p53, 48 h): 4.09 µM; GI50 ([7]; Homo sapiens, SF-268, 48 h): 1.53 µM; CC50 ([7]; Homo sapiens, SF-268, 48 h, read-out: LC50): 30.8 µM; TGI ([7]; SF-268, CNS cancer (brain tumor), mutant p53, 48 h): 5.41 µM; GI50 ([8]; Homo sapiens, UACC-257, 48 h): 3.08 µM; CC50 ([8]; Homo sapiens, UACC-257, 48 h, read-out: LC50): 29.4 µM; TGI ([8]; UACC-257, melanoma, wild-type p53, 48 h): 10.8 µM; GI50 ([9]; Homo sapiens, TK-10, 48 h): 1.85 µM; CC50 ([9]; Homo sapiens, TK-10, 48 h, read-out: LC50): 21.5 µM; TGI ([9]; TK-10, renal cancer, mutant p53, 48 h): 7.17 µM; GI50 ([10]; Homo sapiens, RPMI-8226, 48 h): 1.32 µM; CC50 ([10]; Homo sapiens, RPMI-8226, 48 h, read-out: LC50): > 50 µM; TGI ([10]; RPMI-8226, leukemia, mutant p53, 48 h): 3.99 µM; GI50 ([11]; Homo sapiens, SF-539, 48 h): 1.01 µM; CC50 ([11]; Homo sapiens, SF-539, 48 h, read-out: LC50): 7.59 µM; TGI ([11]; SF-539, CNS cancer (brain tumor), mutant p53, 48 h): 2.48 µM; TGI ([12]; HCT-116, colon cancer, wild-type p53, 48 h): 2.01 µM; GI50 ([12]; Homo sapiens, HCT-116, 48 h): 0.728 µM; CC50 ([12]; Homo sapiens, HCT-116, 48 h, read-out: LC50): 6.47 µM; GI50 ([13]; Homo sapiens, NCI-H522, 48 h): 0.731 µM; CC50 ([13]; Homo sapiens, NCI-H522, 48 h, read-out: LC50): 3.3 µM; TGI ([13]; NCI-H522, non-small-cell lung cancer, mutant p53, 48 h): 1.55 µM; GI50 ([14]; Homo sapiens, Malme-3M): 0.839 µM; CC50 ([14]; Homo sapiens, Malme-3M, read-out: LC50): 4.12 µM; TGI ([14]; MALME-3M, melanoma, wild-type p53): 1.86 µM; toxicity for the cell line ([15]; 25 µM, 50 µM and 75 µM, 48 h post-treatment): highly toxic; cell death with depletion of cytosolic cytochrome c ([15]; 25.0 µM, 48 h): induced complete cell death; concentration at which cytochrome c translocation from mitochondria into the cytosol was readily induced ([15]; 48 h, tested 500 nM, 1 µM, 5 µM, 25 µM): 5.0 µM; toxicity for the cell line ([16]; 50 µM and 75 µM, 48 h post-treatment): highly toxic; concentration at which cytochrome c translocation from mitochondria into the cytosol was readily induced ([16]; 48 h, tested 500 nM, 1 µM, 5 µM): 25.0 µM; GI50 ([17]; Homo sapiens, SW-620, 48 h): 1.25 µM; CC50 ([17]; Homo sapiens, SW-620, 48 h, read-out: LC50): 17.2 µM; TGI ([17]; SW-620, colon cancer, mutant p53, 48 h): 3.95 µM; GI50 ([18]; Homo sapiens, SNB-75, 48 h): 2.34 µM; CC50 ([18]; Homo sapiens, SNB-75, 48 h, read-out: LC50): 27.9 µM; TGI ([18]; SNB-75, CNS cancer (brain tumor), mutant p53, 48 h): 9.73 µM; GI50 ([19]; Homo sapiens, OVCAR-4, 48 h): 1.16 µM; CC50 ([19]; Homo sapiens, OVCAR-4, 48 h, read-out: LC50): 18.4 µM; TGI ([19]; OVCAR-4, ovarian cancer, mutant p53, 48 h): 5.45 µM; GI50 ([20]; Homo sapiens, NCI-H23, 48 h): 1.53 µM; CC50 ([20]; Homo sapiens, NCI-H23, 48 h, read-out: LC50): 28.2 µM; TGI ([20]; NCI-H23, non-small-cell lung cancer, mutant p53, 48 h): 6.36 µM; TGI ([21]; HS 578T, breast cancer, mutant p53): 11.8 µM; GI50 ([21]; Homo sapiens, Hs-578T): 1.92 µM; CC50 ([21]; Homo sapiens, Hs-578T, read-out: LC50): > 50 µM; TGI ([22]; DU-145, prostate cancer, mutant p53, 48 h): 4.61 µM; GI50 ([22]; Homo sapiens, DU-145, 48 h): 1.47 µM; CC50 ([22]; Homo sapiens, DU-145, 48 h, read-out: LC50): 15.2 µM; GI50 ([23]; Homo sapiens, NCI-H460, 48 h): 1.19 µM; CC50 ([23]; Homo sapiens, NCI-H460, 48 h, read-out: LC50): 17.9 µM; TGI ([23]; NCI-H460, non-small-cell lung cancer, wild-type p53, 48 h): 2.71 µM; GI50 ([24]; Homo sapiens, OVCAR-5, 48 h): 0.977 µM; CC50 ([24]; Homo sapiens, OVCAR-5, 48 h, read-out: LC50): 10.8 µM; TGI ([24]; OVCAR-5, ovarian cancer, p53 Lit. inconclusive, 48 h): 2.76 µM; TGI ([25]; BT-549, breast cancer, mutant p53, 48 h): 2.77 µM; GI50 ([25]; Homo sapiens, BT-549, 48 h): 1.02 µM; CC50 ([25]; Homo sapiens, BT-549, 48 h, read-out: LC50): 10.2 µM; GI50 ([26]; Homo sapiens, SK-MEL-28, 48 h): 1.66 µM; CC50 ([26]; Homo sapiens, SK-MEL-28, 48 h, read-out: LC50): 21.9 µM; TGI ([26]; SK-MEL-28, melanoma, mutant p53, 48 h): 7.91 µM
